Assay results as given in US8445522B2, “Substituted 2-(4-pyridyl)benzoxazoles, and compositions thereof, for use in arthropod pest control” (Sumitomo Chemical Company, Limited, priority 2009, dated 2013).
Where two headings read alike, the source gives them in different places.

Experiments:
Format in all cases: in vivo
[1] = test system: halymorpha halys; experiment: Test Example 7: treated tissue paper with budding soybeans, halymorpha halys mortality; settings: 168 h
Description: Formulations were prepared by the method described in Formulation Example 1 with respect to each of the active compound 13, the active compound 15, the active compound 18, the active compound 35, the active compound 37, the active compound 44, the active compound 65, the active compound 68 and the active compound 82. The formulations were diluted with water so that the concentration of the active ingredient became 100 ppm and thus test diluents were prepared.
On the other hand, a tissue paper placed in an aluminum cup was irrigated with any one of the above-mentioned diluents (5 ml). The tissue paper was placed in a polyethylene cup together with three budding soybeans. In the polyethylene cup, ten halymorpha halys were released, and the polyethylene cup was lidded by a polyethylene lid. Seven days after the releasing of the insects, the number of survived insects was counted, and the mortality was calculated by the following equation. Mortality(%)=(number of dead insects/number of insects to be tested)×100

[2] = test system: cotton aphids; experiment: Test Example 3: plant foot irrigation of cucumber seedling in plastic cup, cotton aphids inoculated after seven days; settings: 144 h, read-out: Control value
Description: (§1) The formulations were diluted with water so that the concentration of the active ingredient became 500 ppm and thus test diluents were prepared. On the other hand, a plant foot of cucumber seedling (second true leaf development stage) planted in a plastic cup was irrigated with any one of diluents (5 ml). The seedling was kept in a green house of 25° C. for seven days. The cucumber leaves were inoculated with 30 cotton aphids (all stages) and kept in the green house for further six days. Thereafter, the number of survived cotton aphids parasitic on the cucumber leaves was counted, and the control value was calculated by the following equation. Control value(%)={1−(Cb×Tai)/(Cai×Tb)}×100 wherein each character represents the following meaning: Cb: number of insects in non-treated section before treatment Cai: number of insects in non-treated section during observation Tb: number of insects in treated section before treatment Tai: number of insects in treated section during observation

[3] = test system: rice brown planthopper; experiment: Test Example 6: plant foot irrigation of rice plant seedling, rice brown planthopper released after seven days; settings: Nilaparvata lugens, 144 h, read-out: Control value
Description: The formulations were diluted with water so that the concentration of the active ingredient became 500 ppm and thus test diluents were prepared. On the other hand, a plant foot of rice plant seedling (two weeks after seeding, second leaf development stage) planted in a plastic cup was irrigated with any one of diluents (5 ml). The seedling was kept in a green house of 25° C. for seven days. Thirty first-instars of rice brown planthopper were released to the seedling, which was kept in the green house at 25 C for six days. Thereafter, the number of survived rice brown planthopper parasitic on rice plant leaves was counted, and the control value was calculated by the following equation. Control value(%)={1−(Cb×Tai)/(Cai×Tb)}×100 wherein each character represents the following meaning: Cb: number of insects in non-treated section before treatment Cai: number of insects in non-treated section during observation Tb: number of insects in treated section before treatment Tai: number of insects in treated section during observation

[4] = test system: cotton aphids; experiment: Test Example 2: plant foot irrigation of cucumber seedling in urethane mat, cotton aphids inoculated one day after treatment; settings: 168 h, read-out: Control value
Description: as §1, with “urethane mat” for “plastic cup”, “One day after the treatment, the” for “The seedling was kept in a green house of 25° C. for seven days. The”, “stages). Further seven days after,” for “stages) and kept in the green house for further six days. Thereafter,”

[5] = test system: cotton aphids (Aphis gossypii Glover); experiment: Test Example 1: test diluent scattered on cucumber seedling inoculated with cotton aphids; settings: 120 h, read-out: Control value
Description: The formulations were diluted with water so that the concentration of the active ingredient became 500 ppm and thus test diluents were prepared. On the other hand, a cucumber seedling (second true leaf development stage) planted in a plastic cup was inoculated with about 30 cotton aphids (Aphis gossypii Glover) and allowed to stand for one day. To the seedling, any one of the diluents (10 ml) was scattered. Five days after the scattering, the number of survived cotton aphids parasitic on the cucumber leaves was counted, and the control value was calculated by the following equation. Control value(%)={1−(Cb×Tai)/(Cai×Tb)}×100 wherein each character represents the following meaning: Cb: the number of insects in non-treated section before treatment Cai: the number of insects in non-treated section during observation Tb: the number of insects in treated section before treatment Tai: the number of insects in treated section during observation

[6] = test system: rice brown planthopper; experiment: Test Example 5: test diluent scattered on rice plant seedling, rice brown planthopper released; settings: Nilaparvata lugens, 144 h, read-out: Control value
Description: The formulations were diluted with water so that the concentration of the active ingredient became 500 ppm and thus test diluents were prepared. On the other hand, to a rice plant seedling (two weeks after seeding, second leaf development stage) planted in a plastic cup, any one of the diluents (10 ml) was scattered. After the drug solution scattered on the rice plant was dried, 30 first-instars of rice brown planthopper were released on the rice plant, which was kept in the green house at 25° C. for six days. Thereafter, the number of rice brown planthopper parasitic on rice plant was counted and the control value was calculated by the following equation. Control value(%)={1−(Cb×Tai)/(Cai×Tb)}×100 wherein each character represents the following meaning: Cb: number of insects in non-treated section before treatment Cai: number of insects in non-treated section during observation Tb: number of insects in treated section before treatment Tai: number of insects in treated section during observation

[7] = test system: tobacco whitefly; experiment: Test Example 4: test diluent scattered on tomato seedling with hatched tobacco whitefly larvae; settings: 168 h, read-out: Control value
Description: The formulations were diluted with water so that the concentration of the active ingredient became 500 ppm and thus test diluents were prepared. On the other hand, by releasing tobacco whitefly imagos to a tomato seedling planted in a plastic cup to allow them to lay eggs for about 24 hours. The tomato seedling was kept in a green house for eight days. At the stage in which larvae hatched from the laid eggs, any of the test diluents was scattered at the rate of 10 ml/cup. The tomato seedling was kept in the greenhouse at 25° C. for seven days. The number of survived larvae on tomato leaves was counted, and the control value was calculated by the following equation. Control value(%)={1−(Cb×Tai)/(Cai×Tb)}×100 wherein each character represents the following meaning: Cb: number of insects in non-treated section before treatment Cai: number of insects in non-treated section during observation Tb: number of insects in treated section before treatment Tai: number of insects in treated section during observation

[8] = test system: cotton aphids; experiment: Test Example 8 and Comparative Test Example: 200 ppm diluent scattered on cucumber seedling inoculated with cotton aphids; settings: 200 ppm active ingredient, 10 ml scattered on cucumber seedling, counted five days after scattering
[9] = 500 ppm, 5 ml plant foot irrigation of rice seedling, first-instars released after seven days, counted six days after
[10] = 500 ppm, 5 ml plant foot irrigation, plastic cup, aphids inoculated after seven days at 25° C., counted six days after
[11] = 500 ppm, 5 ml plant foot irrigation, urethane mat, aphids inoculated one day after treatment, counted seven days after
[12] = 100 ppm, 5 ml on tissue paper with budding soybeans, ten insects, counted seven days after releasing, read-out: Mortality
[13] = 500 ppm, 10 ml scattered on rice plant seedling, 30 first-instars released, counted after six days at 25° C.
[14] = 500 ppm, 10 ml/cup scattered on tomato seedling at larvae stage, counted after seven days at 25° C.

FC(F)(F)c1ccc2oc(-c3ccncc3)nc2c1 [active compound 13, 2-(pyridin-4-yl)-5-(trifluoromethyl)benzoxazole]
mortality at 100 ppm [1]: ≥ 80%
pest or weed control at 500 ppm [2]: ≥ 90%

[O-][n+]1ccc(-c2nc3cc(C(F)(F)F)ccc3o2)cc1 [active compound 14, 4-[5-(trifluoromethyl)benzoxazole-2-yl]pyridine N-oxide]
pest or weed control at 500 ppm [3, 9]: ≥ 90%
pest or weed control at 500 ppm [2, 10]: ≥ 90%
pest or weed control at 500 ppm [4, 11]: ≥ 90%

FC(F)(F)c1ccc2nc(-c3ccncc3)oc2c1 [active compound 15, 2-(pyridin-4-yl)-6-(trifluoromethyl)benzoxazole]
mortality at 100 ppm [1, 12]: ≥ 80%

FC(F)(F)c1ccc2oc(-c3ccncc3Cl)nc2c1 [active compound 18, 2-(3-chloropyridin-4-yl)-5-(trifluoromethyl)benzoxazole]
pest or weed control at 500 ppm [3]: ≥ 90%
mortality at 100 ppm [1]: ≥ 80%
pest or weed control at 500 ppm [4]: ≥ 90%

[O-][n+]1ccc(-c2nc3cc(C(F)(F)F)ccc3o2)c(I)c1 [active compound 30, 3-iode-4-[5-(trifluoromethyl)benzoxazole-2-yl]pyridine N-oxide]
pest or weed control at 500 ppm [3, 9]: ≥ 90%
pest or weed control at 500 ppm [2, 10]: ≥ 90%
pest or weed control at 500 ppm [4, 11]: ≥ 90%

CCc1cnccc1-c1nc2cc(C(F)(F)F)ccc2o1 [active compound 35, 2-(3-ethylpyridin-4-yl)-5-(trifluoromethyl)benzoxazole]
pest or weed control at 500 ppm [3]: ≥ 90%
mortality at 100 ppm [1]: ≥ 80%
pest or weed control at 500 ppm [5]: ≥ 90%
pest or weed control at 500 ppm [6]: ≥ 90%
pest or weed control at 500 ppm [4]: ≥ 90%
pest or weed control at 500 ppm [7]: ≥ 90%

COc1cnccc1-c1nc2cc(C(F)(F)F)ccc2o1 [active compound 37, 2-(3-methoxypyridin-4-yl)-5-(trifluoromethyl)benzoxazole]
pest or weed control at 500 ppm [3]: ≥ 90%
mortality at 100 ppm [1]: ≥ 80%
pest or weed control at 500 ppm [2]: ≥ 90%
pest or weed control at 500 ppm [5]: ≥ 90%
pest or weed control at 500 ppm [4]: ≥ 90%
pest or weed control at 500 ppm [7]: ≥ 90%

CC(C)(C)Sc1cnccc1-c1nc2cc(C(F)(F)F)ccc2o1 [active compound 44, 2-(3-tert-butylthiopyridin-4-yl)-5-(trifluoromethyl)benzoxazole]
pest or weed control at 500 ppm [3]: ≥ 90%
mortality at 100 ppm [1]: ≥ 80%

FC(F)(F)c1ccc2oc(-c3ccncc3-n3cccn3)nc2c1 [active compound 58, 2-[3-(pyrazole-1-yl)pyridin-4-yl]-5-(trifluoromethyl)benzoxazole]
pest or weed control at 500 ppm [3, 9]: ≥ 90%
pest or weed control at 500 ppm [2, 10]: ≥ 90%
pest or weed control at 500 ppm [6, 13]: ≥ 90%
pest or weed control at 500 ppm [4, 11]: ≥ 90%

FC(F)(F)c1ccc2oc(-c3ccncc3-n3cncn3)nc2c1 [active compound 63, 2-[3-(1,2,4-triazole-1-yl)pyridin-4-yl]-5-(trifluoromethyl)benzoxazole]
pest or weed control at 500 ppm [2, 10]: ≥ 90%
pest or weed control at 500 ppm [4, 11]: ≥ 90%
pest or weed control at 500 ppm [7, 14]: ≥ 90%

FC(F)(F)C(F)(F)c1ccc2oc(-c3ccncc3)nc2c1 [active compound 65, 5-(pentafluoroethyl)-2-(pyridin-4-yl)-benzoxazole]
mortality at 100 ppm [1, 12]: ≥ 80%

FC(F)(F)C(F)(c1ccc2oc(-c3ccncc3Cl)nc2c1)C(F)(F)F [active compound 68, 2-(3-chloropyridin-4-yl)-5-(heptafluoroisopropyl)benzoxazole]
mortality at 100 ppm [1, 12]: ≥ 80%
pest or weed control at 500 ppm [6, 13]: ≥ 90%

CC(=O)Nc1cnccc1-c1nc2cc(C(F)(F)F)ccc2o1 [active compound 82, N-[4-(5-trifluoromethylbenzoxazole-2-yl)pyridin-3-yl]acetamide]
mortality at 100 ppm [1, 12]: ≥ 80%

FC(F)(F)c1ccc2oc(-c3ccncc3C(F)(F)F)nc2c1 [active compound 125, 5-trifluoromethyl-2-[3-(trifluoromethyl)pyridin-4-yl]-benzoxazole]
pest or weed control at 500 ppm [3, 9]: ≥ 90%
pest or weed control at 500 ppm [2, 10]: ≥ 90%
pest or weed control at 500 ppm ([5]; 500 ppm active ingredient, 10 ml scattered on cucumber seedling, counted five days after scattering): ≥ 90%
pest or weed control at 500 ppm [4, 11]: ≥ 90%
pest or weed control at 500 ppm [7, 14]: ≥ 90%

c1ccc2oc(-c3ccncc3)nc2c1 [comparative compound (B)]
Control value [8]: less than 30%
